Test results as given in patent US20150250810A1, “D-TAGATOSE-BASED COMPOSITIONS AND METHODS FOR PREVENTING AND TREATING ATHEROSCLEROSIS, METABOLIC SYNDROME, AND SYMPTOMS THEREOF” (University of Kentucky Research Foundation, priority 2008, published 2015).

Assays:
[1] = tested on: LDLr-/- mice; assay: Body weight and adipose tissue characteristics in hypercholesterolemic mice fed sucrose- or TAG-enriched diet for sixteen weeks; assay type: in vivo; details: for macrophage positive F4/80 immunostaining in adipose sections / adipocyte size: study end point; for body weight: enriched diet, sixteen weeks; for development of obesity (weight gain, adiposity, adipocyte hypertrophy): overall study conclusion
Excerpt: Low-density lipoprotein receptor male and female mice (LDLr^-/-) that were approximately eight weeks old were fed either a standard murine diet (“control”), a diet enriched with sucrose, or a diet enriched with TAG for sixteen weeks. The diets enriched with sucrose or TAG contained equivalents amounts (g/kg) of protein, fat and carbohydrate, although due to the differences in energy content between sucrose (˜4.0 kcal/g) and TAG (˜1.5 kcal/g), the TAG-containing diet provided relatively more calories from fat and protein. Before the sixteen week feeding period, sucrose and TAG were introduced to the experimental mice gradually over a three week period, using an increasing ratio of sucrose or TAG diet to the standard murine diet. Food intake was measured for the first four weeks of the sixteen week period and the body weight of the mice was measured weekly. […] At the study end point, retroperitoneal and epidydimal fat was dissected out of the body and stored in formalin and subsequently embedded in paraffin for examination of morphology and immunostaining. Total adipose tissue mass was increased in both male and female mice fed the diet enriched with sucrose when compared to mice fed murine or TAG-enriched diets. For characterization of adipocyte morphology, adipose tissue sections were deparrafinized and stained using hematoxylin and eosin and then analyzed using Image Pro Plus 5.1 (Media Cybernetics, Silver Spring, Md.). […] Macrophage positive F4/80 immunostaining was detected in adipose section from mice fed a sucrose-enriched diet but not in those fed standard murine or TAG-enriched diets.

[2] = tested on: LDLr-/- mice; assay: Serum cholesterol, triglyceride and lipoprotein concentrations in diet-fed mice (enzymatic assay kits); assay type: in vivo; details: for total serum triglyceride concentration: end of study; for very low density lipoprotein and LDL cholesterol concentrations / total serum cholesterol concentration: male and female mice; for very low density lipoprotein and LDL cholesterol concentrations: compared to control mice; for total serum cholesterol concentration: sucrose vs standard murine and TAG diets, TAG vs sucrose-fed
Excerpt: Low-density lipoprotein receptor male and female mice (LDLr^-/-) that were approximately eight weeks old were fed either a standard murine diet (“control”), a diet enriched with sucrose, or a diet enriched with TAG for sixteen weeks. The diets enriched with sucrose or TAG contained equivalents amounts (g/kg) of protein, fat and carbohydrate, although due to the differences in energy content between sucrose (˜4.0 kcal/g) and TAG (˜1.5 kcal/g), the TAG-containing diet provided relatively more calories from fat and protein. Before the sixteen week feeding period, sucrose and TAG were introduced to the experimental mice gradually over a three week period, using an increasing ratio of sucrose or TAG diet to the standard murine diet.
Total serum cholesterol and plasma triglyceride concentrations were determined for the individual mice at the end of the study using enzymatic assay kits (Wako Pure Chemical, Richmond, Va.).

[3] = tested on: human patients with type 2 diabetes; assay: Six-month oral TAG dosing study, HbA1c, serum triglycerides, LDL and HDL; assay type: in vivo; details: for average reduction in serum triglycerides / average reduction in HbA1c from the HbA1c of the 2.5 g group: after six months; for decrease in average serum triglycerides from baseline: all TAG-consuming patients
Protocol: Thirty-eight human patients with type 2 diabetes were administered one of three concentrations of TAG orally with meals. […] The treatment duration was six months and patients were randomized to one of the three doses. […] Patients also had to go through an eight week run-in period in which they were on a weight-maintaining diet and a daily exercise program under the supervision of the investigator prior to receiving their TAG dose. Patients with a current or recent history of treatment with any oral or injectable anti-diabetic treatment, as well as patients having one or more episodes of severe hypoglycemia within six months prior to entry into the study, were excluded from the study. Blood samples were taken throughout the experiment and levels of HbAc1, serum triglycerides, LDLs and HDLs were measured.

[4] = tested on: LDLr-/- mice; assay: Atherosclerosis by en face lesion surface area, immunohistochemistry, infrared microscopy and Gomori Trichome staining; assay type: in vivo; details: for concentration of lipids in atherosclerotic lesions: infrared microscopy of aortic lesions
Excerpt: Low-density lipoprotein receptor male and female mice (LDLr^-/-) that were approximately eight weeks old were fed either a standard murine diet (“control”), a diet enriched with sucrose, or a diet enriched with TAG for sixteen weeks. The diets enriched with sucrose or TAG contained equivalents amounts (g/kg) of protein, fat and carbohydrate, although due to the differences in energy content between sucrose (˜4.0 kcal/g) and TAG (˜1.5 kcal/g), the TAG-containing diet provided relatively more calories from fat and protein. Before the sixteen week feeding period, sucrose and TAG were introduced to the experimental mice gradually over a three week period, using an increasing ratio of sucrose or TAG diet to the standard murine diet. At the study end point, mice were exsanguinated by perfusion through the left ventricle. Aortic tissues from the heart to the […] bifurcation were dissected and fixed overnight in 4% paraformaldehyde made with phosphate buffered solution (“PBS”) and then stored in PBS. Atherosclerosis was quantified by en face analysis of lesion surface area as detailed in Henriques, T A, et al., “Orchidectomy, but not ovariectomy, regulates angiotensin II-induced vascular diseases in apolipoprotein E-deficient mice,” Endocrinology, 145: 3866-3872 (2004). Atherosclerotic lesions were quantified by two independent observers. […] Macrophage infiltration into atherosclerotic areas was assessed using immunohistochemistry staining. […] Collagen may strengthen the fibrous caps in lipid-filled atheromas, preventing rupture.

[5] = humans; cited from earlier work

Structure (SMILES)	macrophage positive F4/80 immunostaining in adipose sections [1]	body weight ([1]; female LDLr-/- mice) [g]	adipocyte size ([1]; female mice) [μm]	body weight ([1]; male LDLr-/- mice) [g]	adipocyte size ([1]; male mice) [μm]	development of obesity (weight gain, adiposity, adipocyte hypertrophy) [1]	total serum triglyceride concentration ([2]; female mice) [mg/dL]	very low density lipoprotein and LDL cholesterol concentrations [2]	total serum cholesterol concentration [2]	total serum triglyceride concentration ([2]; male mice) [mg/dL]	concentration of lipids in atherosclerotic lesions [4]	other results
O=C(CO)[C@@H](O)[C@@H](O)[C@H](O)CO [TAG, (3S,4S,5R)-1,3,4,5,6-pentahydroxy-hexan-2-one]	not	24 ± 1	31±1	27 ± 0	79±3	did not promote substantial weight gain, enhanced adiposity or adipocyte hypertrophy	54 ± 8	only slightly elevated	decreased	162 ± 29	intermediate amount	average improvement of LDL:HDL ratio ([3]; 2.5 g and 5 g groups): 0.3; average reduction in serum triglycerides ([3]; 2.5 g group): 22.2 mg/dL; decrease in LDL levels ([3]; 2.5 g group, end of the first month): about 12.3 mg/dl; average reduction in HbA1c from the HbA1c of the 2.5 g group ([3]; 5 g group): 0.05%; average reduction in serum triglycerides ([3]; 5 g group): 96.8 mg/dL; decrease in LDL levels ([3]; 5 g group, end of the first month): about 23.8 mg/dl; average reduction in HbA1c from the HbA1c of the 2.5 g group ([3]; 7.5 g group): 0.3%; average reduction in serum triglycerides ([3]; 7.5 g group): 2.8 mg/dL; decrease in average serum triglycerides from baseline ([3]; end of six months): about 41 mg/dl; decrease in average serum triglycerides from baseline ([3]; end of the first month): about 59 mg/dl; average decrease in serum LDL ([3]; all patients, end of the first month): about 13 mg/dl; serum HDL change ([3]; end of the first month): essentially unchanged; concentration of collagen in atherosclerotic lesions ([4]; Gomori Trichome staining, compared to sucrose-fed mice): higher concentration; rate of atherosclerosis compared to control mice ([4]; female mice): slightly higher; amount of atherosclerosis compared to control mice ([4]; male mice): did not exhibit a significantly different amount; fraction of ingested substance absorbed into the bloodstream [5]: about 25%
OC[C@H]1O[C@@](CO)(O[C@H]2O[C@H](CO)[C@@H](O)[C@H](O)[C@H]2O)[C@@H](O)[C@@H]1O [sucrose, reference compound]	detected	31 ± 1	50±1	40 ± 2	83±3	promotes the development of obesity	326 ± 37	significantly elevated	markedly increased	822 ± 148	highest concentration	total adipose tissue mass ([1]; male and female mice, compared to murine or TAG-enriched diets): increased; macrophage infiltration and lesion size in aortic roots ([4]; immunohistochemistry, compared to TAG-fed mice): larger degree of macrophage infiltration and larger lesions; number and size of atherosclerotic lesions in aortic roots ([4]; male and female mice, compared to TAG-fed mice): greater number and size; atherosclerotic surface area ([4]; male and female mice, compared to control and TAG-enriched diet): striking increase
